Experimental data published in US20110039763A1, “TARGETED ANTIMICROBIAL MOIETIES” (C3 JIAN, INC., priority 2009, published 2011).
“Also recorded” adds a separate entry of the source.

How the values were obtained:
[1] = test system: microorganisms; assay: Morphology, biofilm and growth disrupting peptides (Table 5); format: cell-based; design: key: A: Peptide aggregates; B: Less hyphal formation; Clumps; Diffuse clumps and small polyps; F: Diffuse growth; H: Thin; I: Growth inhibition; Microcolony formation; Rippled; Small polyps; Thick; W: Halo formation on top, microlonies on bottom
Excerpt: In certain embodiments peptides that induce alterations in phenotype or other biological activities can also be used as antimicrobial effector moieties.

[2] = test system: microorganisms; assay: Peptide activities: targeting/binding, antimicrobial, growth or phenotype altering (Tables 7, 8); format: cell-based; conditions: peptides having multiple activities
[3] = test system: microorganisms; assay: Targeting peptide binding to target microorganisms (Tables 3, 10, 12); conditions: microorganism(s) the targeting peptide binds; binding in aqueous buffers varied with peptide solubility, preferably 1x PBS

Substance	Organism, effect: E. coli [1]	Organism, effect: MRSA [1]	Organism, effect: S. epidermidis [1]	Activities [2]	Target(s) [3]	Organism, effect: E. faecalis [1]	Organism, effect: C. jejuni [1]	Organism, effect: S. pneumoniae [1]
PF-370: peptide having multiple activities (chain 1 VIFLHKESGNLKEIFY; chain 2 VIFLHKESGNLKEIFY; Peptide with targeting and/or antimicrobial activity)	E. coli (R)	MRSA (C)	S. epidermidis (C)	G B	S. epidermidis; also recorded: E. coli; also recorded: P. aeruginosa; also recorded: E. faecalis; also recorded: C. jejuni	–	–	–
PF-373: peptide having multiple activities (chain 1 HFYLLFER; chain 2 HFYLLFER; Peptide with targeting and/or antimicrobial activity)	–	MRSA (M)	S. epidermidis (M)	G B	S. epidermidis and E. coli and P. aeruginosa and C. albicans and MRSA and E. faecalis and C. jejuni	–	–	–
PF-378: peptide having multiple activities (chain 1 ESAKSNLNFLMQEEWALFLLL; chain 2 ESAKSNLNFLMQEEWALFLLL; Peptide with targeting and/or antimicrobial activity)	–	MRSA (M)	S. epidermidis (M)	G B	B. subtilis; also recorded: B. fragilis; also recorded: E. coli; also recorded: P. aeruginosa; also recorded: C. jeikeium	–	–	–
PF-381: peptide having multiple activities (chain 1 QGANPCQQVGFTVNDPDCRLAKTV; chain 2 QGANPCQQVGFTVNDPDCRLAKTV; Peptide with targeting and/or antimicrobial activity)	E. coli (R)	MRSA (C)	S. epidermidis (C)	G B	E. coli; also recorded: P. aeruginosa; also recorded: C. jejuni	E. faecalis (C)	–	–
PF-382: peptide having multiple activities (chain 1 KYKCSWCKRVYTLRKDHKTAR; chain 2 KYKCSWCKRVYTLRKDHKTAR; Peptide with targeting and/or antimicrobial activity)	–	MRSA (M)	–	G B	S. epidermidis; also recorded: B. subtilis; also recorded: B. fragilis; also recorded: E. coli; also recorded: P. aeruginosa; also recorded: E. faecalis; also recorded: C. jeikeium; also recorded: C. jejuni	–	–	–
PF-383: peptide having multiple activities (chain 1 WSEIEINTKQSN; chain 2 WSEIEINTKQSN; Peptide with targeting and/or antimicrobial activity)	E. coli (R)	–	S. epidermidis (C)	G B	S. epidermidis; also recorded: B. subtilis; also recorded: B. fragilis; also recorded: E. coli; also recorded: C. jejuni	–	–	–
PF-385: peptide having multiple activities (chain 1 MIKKSILKIKYYVPVLISLTLILSA; chain 2 MIKKSILKIKYYVPVLISLTLILSA; Peptide with targeting and/or antimicrobial activity)	E. coli (A)	–	–	G B	S. epidermidis; also recorded: E. coli; also recorded: P. aeruginosa; also recorded: C. albicans; also recorded: E. faecalis	–	–	–
PF-390: peptide having multiple activities (chain 1 VVAYVITQVGAIRF; chain 2 VVAYVITQVGAIRF; Peptide with targeting and/or antimicrobial activity)	E. coli (C)	MRSA (D)	S. epidermidis (D)	G B	S. epidermidis and P. aeruginosa and C. albicans and MRSA	E. faecalis (D)	C. jejuni (D)	S. pneumoniae (D)
PF-392: peptide having multiple activities (chain 1 DPAGCNDIVRKYCK; chain 2 DPAGCNDIVRKYCK; Peptide with targeting and/or antimicrobial activity)	–	MRSA (S)	–	G B	S. epidermidis; also recorded: B. subtilis; also recorded: S. pneumoniae; also recorded: C. jeikeium; also recorded: C. jejuni	E. faecalis (A)	C. jejuni (A)	–
PF-393: peptide having multiple activities (chain 1 DLVQSILSEFKKSG; chain 2 DLVQSILSEFKKSG; Peptide with targeting and/or antimicrobial activity)	–	MRSA (C)	S. epidermidis (R)	G B	S. epidermidis and E. coli and C. albicans and MRSA and S. pneumoniae and C. jejuni	E. faecalis (A)	C. jejuni (R)	S. pneumoniae (R)
PF-394: peptide having multiple activities (chain 1 VLKEECYQKN; chain 2 VLKEECYQKN; Peptide with targeting and/or antimicrobial activity)	–	MRSA (C)	–	G B	S. epidermidis and MRSA and C. jejuni	E. faecalis (A)	–	–
PF-395: peptide having multiple activities (chain 1 YCVPLGNMGNMNNKIW; chain 2 YCVPLGNMGNMNNKIW; Peptide with targeting and/or antimicrobial activity)	E. coli (R)	MRSA (C)	S. epidermidis (C)	G B	S. epidermidis; also recorded: E. coli; also recorded: P. aeruginosa; also recorded: S. pneumoniae; also recorded: E. faecalis; also recorded: C. jeikeium; also recorded: C. jejuni	–	–	–
PF-396: peptide having multiple activities (chain 1 LIYTILASLGVLTVLQAILGREPKAVKA; chain 2 LIYTILASLGVLTVLQAILGREPKAVKA; Peptide with targeting and/or antimicrobial activity)	E. coli (C)	MRSA (C)	S. epidermidis (S)	G B	S. epidermidis; also recorded: E. coli; also recorded: P. aeruginosa; also recorded: C. albicans; also recorded: E. faecalis; also recorded: C. jeikeium	E. faecalis (C)	–	–
PF-397: peptide having multiple activities (chain 1 VEDLMEDLNA; chain 2 VEDLMEDLNA; Peptide with targeting and/or antimicrobial activity)	–	–	S. epidermidis (C)	G B	S. epidermidis and MRSA and S. pneumoniae and E. faecalis and C. jejuni	–	–	–
PF-401: peptide having multiple activities (chain 1 YWLSRVTTGHSFAFEKPVPLSLTIK; chain 2 YWLSRVTTGHSFAFEKPVPLSLTIK; Peptide with targeting and/or antimicrobial activity)	E. coli (R)	MRSA (C)	S. epidermidis (C)	G B	S. epidermidis and E. coli and P. aeruginosa and MRSA and E. faecalis and C. jejuni	E. faecalis (C)	–	–
PF-403: peptide having multiple activities (chain 1 LLSTEQLLKYYDGETFDGFQLPSNE; chain 2 LLSTEQLLKYYDGETFDGFQLPSNE; Peptide with targeting and/or antimicrobial activity)	E. coli (R)	MRSA (M)	S. epidermidis (M)	G B	E. coli; also recorded: P. aeruginosa; also recorded: S. pneumoniae; also recorded: E. faecalis; also recorded: C. jeikeium; also recorded: C. jejuni	–	–	–
PF-404: peptide having multiple activities (chain 1 VLYFQATVV; chain 2 VLYFQATVV; Peptide with targeting and/or antimicrobial activity)	–	MRSA (M)	S. epidermidis (M)	G B	S. epidermidis; also recorded: E. coli; also recorded: P. aeruginosa; also recorded: E. faecalis; also recorded: C. jeikeium; also recorded: C. jejuni	–	–	–
PF-405: peptide having multiple activities (chain 1 LVRIEVDDLEEWYERNFI; chain 2 LVRIEVDDLEEWYERNFI; Peptide with targeting and/or antimicrobial activity)	–	MRSA (M)	–	G B	S. epidermidis; also recorded: E. coli; also recorded: E. faecalis	–	–	–
PF-406: peptide having multiple activities (chain 1 YLEMNADYLSNMDIFDELWEKYLENNK; chain 2 YLEMNADYLSNMDIFDELWEKYLENNK; Peptide with targeting and/or antimicrobial activity)	–	MRSA (M)	S. epidermidis (C)	G B	E. coli; also recorded: C. jejuni	–	–	–
